Results as given in ChEMBL document CHEMBL6115036, “Exploration of membrane-active cephalosporin derivatives as potent antibacterial agents against Staphylococcus aureus biofilms and persisters” (Eur J Med Chem, 2025).
In brackets after ≈: the same amount, converted by molar mass. Activity calls are given as the source filed them. The calls are words filed in the database; no cut-off is given here.

Columns and labels:
[1] = Cytotoxicity against human HeLa cells incubated for 24 hrs by CCK8 assay; format: toxicity, cell-based
Staphylococcus aureus [2] = test: Antibacterial activity against Staphylococcus aureus assessed as fold increase in MIC in presence of 50% sheep plasma; format: functional
[3] = Cytotoxicity against HUVEC cells incubated for 24 hrs by CCK8 assay; format: toxicity, cell-based; conditions: human
Staphylococcus aureus [4] = test: Antibacterial activity against Staphylococcus aureus assessed as fold increase in MIC in presence of 50% FBS; format: functional
Staphylococcus aureus [5] = test: Induction of intracellular ROS accumulation in Staphylococcus aureus incubated overnight by DCFH-DA dye based analysis; format: functional, organism-based
Enterococcus faecalis = test: Antimicrobial activity against Enterococcus faecalis incubated for 16 to 18 hrs by broth dilution assay; format: functional; conditions: time 16-18 hrs
[6] = test system: Stenotrophomonas maltophilia; test: Antimicrobial activity against Stenotrophomonas maltophilia incubated for 16 to 18 hrs by broth dilution assay; format: functional; conditions: time 16-18 hrs
Staphylococcus aureus [7] = test: Induction of resistance development in drug-resistant Staphylococcus aureus assessed as fold increase in MIC of cefuroxime sodium at sub-MIC measured after 20 passages relative to control; format: functional
Staphylococcus aureus [8] = test: Induction of resistance development in drug-resistant Staphylococcus aureus assessed as fold increase in MIC of ampicillin sodium at sub-MIC measured after 20 passages relative to control; format: functional
Staphylococcus aureus [9] = test: Induction of resistance development in Staphylococcus aureus assessed as fold increase in MIC at sub-MIC measured after 20 passages relative to control; format: functional
[10] = Hemolytic activity in sheep red blood cells incubated for 1 hr; format: toxicity, cell-based, Ovis aries, Erythrocyte
Escherichia coli = test: Antimicrobial activity against Escherichia coli incubated for 16 to 18 hrs by broth dilution assay; format: functional; conditions: time 16-18 hrs
Staphylococcus aureus [11] = test: Antimicrobial activity against Staphylococcus aureus incubated for 16 to 18 hrs by broth dilution assay; format: functional; conditions: time 16-18 hrs
Staphylococcus aureus [12] = test: Induction of resistance development in drug-resistant Staphylococcus aureus assessed as fold increase in MIC of rifampicin at sub-MIC measured after 20 passages relative to control; format: functional
Staphylococcus aureus [13] = test: Induction of resistance development in drug-resistant Staphylococcus aureus at sub-MIC measured after 20 passages in presence of levofloxacin; format: functional, organism-based
Staphylococcus aureus [14] = test: Inhibition of biofilm formation in Staphylococcus aureus assessed as reduction in number of live bacterial count at 16 times MIC incubated for 24 hrs; format: functional
[15] = Toxicity in Kunming mouse model of subcutaneous abscess infected with Staphylococcus aureus assessed as damage in lung at 5 to 10 mg/kg, sc measured after 48 hrs by H and E staining based analysis; format: organism-based; conditions: in vivo, dose 5-10 mg/kg
Staphylococcus aureus [16] = test: Bactericidal activity against Staphylococcus aureus measured for 3 to 6 hrs in presence of 50% sheep plasma; format: functional, organism-based; conditions: time 3-6 hrs
Staphylococcus aureus [17] = test: Antibacterial activity against rifampicin-induced persistant Staphylococcus aureus assessed as decrease in CFU at 200 times MIC measured for 10 hrs; format: functional, organism-based
Staphylococcus aureus [18] = test: Induction of resistance development in drug-resistant Staphylococcus aureus at sub-MIC measured after 20 passages in presence of vancomycin; format: functional, organism-based
Staphylococcus aureus [19] = test: Antibacterial activity against Staphylococcus aureus infected in Kunming mouse model of subcutaneous abscess assessed as surviving bacteria in skin tissue at 10 mg/kg, sc measured after 48 hrs relative to control; format: functional
Staphylococcus aureus [20] = test: Disruption of cell membrane in Staphylococcus aureus assessed as nucleic acid leakage at 32 ug/ml measured after 2 hrs by fluorescence based analysis; format: functional, organism-based; conditions: dose 32.0 µg/ml
Staphylococcus aureus [21] = test: Induction of resistance development in drug-resistant Staphylococcus aureus at sub-MIC measured after 20 passages in presence of norfloxacin; format: functional, organism-based
Staphylococcus aureus [22] = test: Inhibition of metabolic activity in Staphylococcus aureus incubated for 6 hrs by Alamar blue assay; format: functional, organism-based
Staphylococcus aureus [23] = test: Inhibition of biofilm formation in Staphylococcus aureus assessed as decrease in bacterial count at 32 times MIC incubated for 24 hrs by CLSM analysis; format: functional, organism-based
Staphylococcus aureus [24] = test: Antibacterial activity against Staphylococcus aureus infected in Kunming mouse model of subcutaneous abscess assessed as decrease in neutrophil level in skin tissue at 5 mg/kg, sc measured after 48 hrs by H and E staining based analysis; format: functional, organism-based
Staphylococcus aureus [25] = test: Induction of resistance development in drug-resistant Staphylococcus aureus at sub-MIC measured after 20 passages in presence of ampicillin sodium; format: functional, organism-based
Staphylococcus aureus [26] = test: Disruption of cell membrane in Staphylococcus aureus assessed as protein leakage at 32 ug/ml measured after 2 hrs by fluorescence based analysis; format: functional, organism-based; conditions: dose 32.0 µg/ml
Staphylococcus aureus [27] = test: Induction of resistance development in drug-resistant Staphylococcus aureus at sub-MIC measured after 20 passages in presence of rifampicin; format: functional, organism-based
[28] = Toxicity in Kunming mouse model of subcutaneous abscess infected with Staphylococcus aureus assessed as histopathological abnormalities in spleen at 5 to 10 mg/kg, sc measured after 48 hrs by H and E staining based analysis; format: organism-based; conditions: in vivo, dose 5-10 mg/kg
Staphylococcus aureus [29] = test: Antibacterial activity against Staphylococcus aureus infected in Kunming mouse model of subcutaneous abscess assessed as decrease in inflammatory cell infiltration in skin tissue at 10 mg/kg, sc measured after 48 hrs by H and E staining based analysis; format: functional, organism-based
Staphylococcus aureus [30] = test: Induction of resistance development in drug-resistant Staphylococcus aureus assessed as fold increase in MIC of levofloxacin at sub-MIC measured after 20 passages relative to control; format: functional
[31] = Toxicity in Kunming mouse model of subcutaneous abscess infected with Staphylococcus aureus assessed as histopathological abnormalities in kidney at 5 to 10 mg/kg, sc measured after 48 hrs by H and E staining based analysis; format: organism-based; conditions: in vivo, dose 5-10 mg/kg
Staphylococcus aureus [32] = test: Bactericidal activity against Staphylococcus aureus assessed as reduction in bacterial colony count at 4 to 8 times MIC incubated for 8 hrs by time kill assay; format: functional, organism-based
Staphylococcus aureus [33] = test: Induction of resistance development in Staphylococcus aureus at sub-MIC measured after 20 passages; format: functional, organism-based
Staphylococcus aureus [34] = test: Induction of resistance development in drug-resistant Staphylococcus aureus at sub-MIC measured after 20 passages in presence of ciprofloxacin; format: functional, organism-based
Staphylococcus aureus [35] = test: Induction of intracellular ROS accumulation in Staphylococcus aureus at 1 to 4 times MIC incubated overnight by DCFH-DA dye based analysis; format: functional, organism-based
Staphylococcus aureus [36] = test: Antibacterial activity against Staphylococcus aureus infected in Kunming mouse model of subcutaneous abscess assessed as reduction in bacterial load in skin tissue at 10 mg/kg, sc measured after 48 hrs relative to control; format: functional; design: scale not given: the % may be the effect or the level left
Staphylococcus aureus [37] = test: Induction of resistance development in drug-resistant Staphylococcus aureus at sub-MIC measured after 20 passages in presence of cefuroxime sodium; format: functional, organism-based
Staphylococcus aureus [38] = test: Antibacterial activity against Staphylococcus aureus in presence of 50% FBS; format: functional, organism-based
Staphylococcus aureus [39] = test: Induction of resistance development in drug-resistant Staphylococcus aureus at sub-MIC measured after 20 passages in presence of linezolid; format: functional, organism-based
Staphylococcus aureus [40] = test: Antibacterial activity against Staphylococcus aureus assessed as effect on quiescent cells at 100 to 200 times MIC incubated for 24 hrs; format: functional, organism-based
[41] = Toxicity in Kunming mouse model of subcutaneous abscess infected with Staphylococcus aureus assessed as damage in heart at 5 to 10 mg/kg, sc measured after 48 hrs by H and E staining based analysis; format: organism-based; conditions: in vivo, dose 5-10 mg/kg
[42] = Toxicity in Kunming mouse model of subcutaneous abscess infected with Staphylococcus aureus assessed as histopathological abnormalities in lung at 5 to 10 mg/kg, sc measured after 48 hrs by H and E staining based analysis; format: organism-based; conditions: in vivo, dose 5-10 mg/kg
[43] = Toxicity in Kunming mouse model of subcutaneous abscess infected with Staphylococcus aureus assessed as histopathological abnormalities in heart at 5 to 10 mg/kg, sc measured after 48 hrs by H and E staining based analysis; format: organism-based; conditions: in vivo, dose 5-10 mg/kg
[44] = Toxicity in Kunming mouse model of subcutaneous abscess infected with Staphylococcus aureus assessed as damage in liver at 5 to 10 mg/kg, sc measured after 48 hrs by H and E staining based analysis; format: organism-based; conditions: in vivo, dose 5-10 mg/kg
Staphylococcus aureus [45] = test: Antibacterial activity against Staphylococcus aureus infected in Kunming mouse model of subcutaneous abscess assessed as reduction in number of bacteria in skin tissue at 5 to 10 mg/kg, sc measured after 48 hrs; format: functional, organism-based; conditions: dose 5-10 mg/kg
[46] = Toxicity in Kunming mouse model of subcutaneous abscess infected with Staphylococcus aureus assessed as damage in kidney at 5 to 10 mg/kg, sc measured after 48 hrs by H and E staining based analysis; format: organism-based; conditions: in vivo, dose 5-10 mg/kg
Staphylococcus aureus [47] = test: Antibacterial activity against Staphylococcus aureus in presence of 50% sheep plasma; format: functional, organism-based
[48] = Toxicity in Kunming mouse model of subcutaneous abscess infected with Staphylococcus aureus assessed as histopathological abnormalities in liver at 5 to 10 mg/kg, sc measured after 48 hrs by H and E staining based analysis; format: organism-based; conditions: in vivo, dose 5-10 mg/kg
[49] = Toxicity in Kunming mouse model of subcutaneous abscess infected with Staphylococcus aureus assessed as damage in spleen at 5 to 10 mg/kg, sc measured after 48 hrs by H and E staining based analysis; format: organism-based; conditions: in vivo, dose 5-10 mg/kg
Staphylococcus aureus [50] = test: Antibacterial activity against Staphylococcus aureus infected in Kunming mouse model of subcutaneous abscess assessed as decrease in inflammation in skin tissue at 5 mg/kg, sc measured after 48 hrs by H and E staining based analysis; format: functional, organism-based

CC[C@H](C)[C@H](NC(=O)CN)C(=O)NCC(=O)N[C@@H](C)C(=O)N[C@H](C(=O)N[C@@H](CC(C)C)C(=O)N[C@@H](CCCCN)C(=O)N[C@H](C(=O)N[C@@H](CC(C)C)C(=O)N[C@H](C(=O)N[C@H](C(=O)NCC(=O)N[C@@H](CC(C)C)C(=O)N1CCC[C@H]1C(=O)N[C@@H](C)C(=O)N[C@@H](CC(C)C)C(=O)N[C@H](C(=O)N[C@@H](CO)C(=O)N[C@@H](Cc1c[nH]c2ccccc12)C(=O)N[C@H](C(=O)N[C@@H](CCCCN)C(=O)N[C@@H](CCCNC(=N)N)C(=O)N[C@@H](CCCCN)C(=O)N[C@@H](CCCNC(=N)N)C(=O)N[C@@H](CCC(N)=O)C(=O)N[C@@H](CCC(N)=O)C(N)=O)[C@@H](C)CC)[C@@H](C)CC)[C@@H](C)O)[C@@H](C)O)C(C)C)C(C)C [MELITTIN]
CC50 at 24 h [1]: 3.9 µg/mL (≈ 1.37 µM) | fold change (FC) (Staphylococcus aureus [2]): >32 | CC50 at 24 h [3]: 3.8 µg/mL (≈ 1.33 µM) | fold change (FC) (Staphylococcus aureus [4]): >32 | Activity (Staphylococcus aureus [5]): Dose-dependent-effect | MIC (Enterococcus faecalis): 2 µg/mL (≈ 0.703 µM) | MIC [6]: 8 µg/mL (≈ 2.81 µM)

O=C(Cc1ccccc1)N[C@@H]1C(=O)N2C(C(=O)O)=C(C[n+]3ccccc3)CS[C@H]12.[I-]
fold change (FC) (Staphylococcus aureus [7]): >128 | fold change (FC) (Staphylococcus aureus [8]): 64 | fold change (FC) (Staphylococcus aureus [9]): 64 | HC50 at 1 h [10]: > 1280 µg/mL | MIC (Escherichia coli): 32 µg/mL | MIC (Staphylococcus aureus [11]): 0.063 µg/mL | MIC (Enterococcus faecalis): 16 µg/mL | fold change (FC) (Staphylococcus aureus [12]): 8 | MIC [6]: 64 µg/mL

CCCCCCCCCC[n+]1ccc(-c2cc[n+](CC3=C(C(=O)[O-])N4C(=O)[C@@H](NC(=O)Cc5ccccc5)[C@H]4SC3)cc2)cc1.O=C([O-])C(F)(F)F
Activity (Staphylococcus aureus [13]): inactive | Activity (Staphylococcus aureus [14]): ~1 10^3CFU/ml | CC50 at 24 h [1]: 26.9 µg/mL | Activity [15]: Non-toxic | Activity (Staphylococcus aureus [16]): Active | Activity (Staphylococcus aureus [17]): inactive | CC50 at 24 h [3]: > 64 µg/mL | Activity (Staphylococcus aureus [18]): inactive | HC50 at 1 h [10]: > 1280 µg/mL | Activity (Staphylococcus aureus [19]): 0.02% | Activity (Staphylococcus aureus [20]): inactive | Activity (Staphylococcus aureus [21]): inactive | inhibition (Staphylococcus aureus [22]): Dose-dependent-effect | inhibition (Staphylococcus aureus [23]): inactive | Activity (Staphylococcus aureus [24]): Active | MIC (Escherichia coli): 128 µg/mL | Activity (Staphylococcus aureus [25]): inactive | Activity (Staphylococcus aureus [26]): inactive | Activity (Staphylococcus aureus [27]): inactive | Activity [28]: Non-toxic | Activity (Staphylococcus aureus [29]): Active; Compound Activity On Skin Was Similar To Healthy Mouse | fold change (FC) (Staphylococcus aureus [30]): 8 | Activity [31]: Non-toxic | Activity (Staphylococcus aureus [32]): Active | Activity (Staphylococcus aureus [33]): inactive | Activity (Staphylococcus aureus [34]): inactive | Activity (Staphylococcus aureus [35]): inactive | Activity (Staphylococcus aureus [36]): 99.98% | Activity (Staphylococcus aureus [37]): inactive | Activity (Staphylococcus aureus [38]): Active; Mic Value Of Compound In Serum Was Equal To Mic In Mhb Medium | MIC (Staphylococcus aureus [11]): 0.063 µg/mL | Activity (Staphylococcus aureus [39]): inactive | Activity (Staphylococcus aureus [40]): inactive | MIC (Enterococcus faecalis): 4 µg/mL | Activity [41]: Non-toxic | Activity [42]: Non-toxic | Activity [43]: Non-toxic | Activity [44]: Non-toxic | Activity (Staphylococcus aureus [45]): Active | Activity [46]: Non-toxic | Activity (Staphylococcus aureus [47]): Active; Mic Value Of Compound In Plasma Was Equal To Mic In Mhb Medium | Activity [48]: Non-toxic | Activity [49]: Non-toxic | MIC [6]: 128 µg/mL | Activity (Staphylococcus aureus [50]): Active
